Measurements as given in patent US6534638B1, “Recombinant DNA molecules encoding aminopeptidase enzymes and their use in the preparation of vaccines against helminth infections” (priority 1992, dated 2003).
Like-named read-outs stand apart in the source and are kept apart here.

How the values were obtained:
[1] = tested on: H110D aminopeptidase A-like activity; test: Inhibitor sensitivity of ConA H110D, α-glutamic acid-pNA substrate; format: biochemical, Haemonchus contortus
Excerpt: (§1) α-amino acylpeptide hydrolase (microsomal) aminopeptidase activities in H110D preparations were characterised by assays, in solution, using L-leucine, methionine, phenylalanine, α-glutamic acid and lysine p-nitroanilides (pNA). All the amino acid p-nitroanilide substrates (except α-glutamic acid) were obtained from Sigma, Poole, Dorset UK, α-glutamic acid was from Fluka, Dorset, UK. Single hydrophobic (leucine- or phenylalanine-) and charged (α-glutamic acid-) amino acid pNA known to be substrates for mammalian aminopeptidase-M (ApM) and -A (ApA) respectively, were chosen to measure the effect of enzyme inhibitors and serum inhibition on H110D aminopeptidase activities.
(§2) Micro-ELISA plate (Dynatech Immulon 1, Virginia, USA) wells were each filled with 250 μl of either 50 mM HEPES or MOPS pH 7 plus 1-10 μl of the fraction to be assayed. The plates were then pre-incubated at 37° C. for 10 minutes prior to the addition of 10 μl of 25 mM amino acid p-nitroanilide substrate per well. The time zero optical density (OD) at 405 nm was then measured using an ELISA plate reader and the plates were then incubated at 37° C. for 15-30 minutes. The final OD reading was then taken as before and the OD change per minute per milligram of protein calculated.
(§3) The method used for the enzyme assay was as described in (a) above except that the inhibitors were added to the 250 μl of buffer plus 10 μl of 1 mg/ml ConA H110D and pre-incubated for 10 minutes at 37° C. prior to addition of the substrates (leucine-pNA or α-glutamic acid-pNA). The percentage inhibition was calculated as follows [formula]
(§4) Where x=the ΔOD/min of the enzyme with no inhibitor added and y=ΔOD/min of the enzyme plus inhibitor. Nine compounds with differing enzyme class inhibition were tested individually: Amastatin, Bestatin (metalloprotease, aminopeptidase), 1,10 phenanthroline, EDTA (metalloprotease), phosphoramidon (metalloprotease, thermolysin, collagenase), Aproptinin (serine protease), Pepstatin (aspartic protease), PMSF (serine and cysteine protease) and E64 (cysteine protease). Amastatin, bestatin, 1,10 phenanthroline, PMSF and pepstatin were obtained from Sigma, Dorset, UK. All the other inhibitors were obtained from Boehringer-Mannheim. Each inhibitor was used at two concentrations equal to or greater than the maximum concentrations recommended by Boehringer-Mannheim.

[2] = tested on: H110D aminopeptidase M-like activity; format: biochemical, Haemonchus contortus
Excerpt: as §1, §2, §3
as §4, with “Boehringer-Mannheim.” for “Boehringer-Mannheim. Each inhibitor was used at two concentrations equal to or greater than the maximum concentrations recommended by Boehringer-Mannheim.”

| Compound | PERCENTAGE INHIBITION α-glutamic acid-p-nitroanilide substrate ([1]; inhibitor 1 mM) | PERCENTAGE INHIBITION α-glutamic acid-p-nitroanilide substrate ([1]; inhibitor 10 mM) | Ranking of inhibitors of H110D aminopeptidase activities ([2]; 5 mM) | PERCENTAGE INHIBITION Leucine-p-nitroanilide substrate ([2]; inhibitor 1 mM, ConA H110D) | PERCENTAGE INHIBITION Leucine-p-nitroanilide substrate ([2]; inhibitor 10 mM, ConA H110D) | PERCENTAGE INHIBITION α-glutamic acid-p-nitroanilide substrate ([1]; inhibitor 10 μM) | PERCENTAGE INHIBITION α-glutamic acid-p-nitroanilide substrate ([1]; inhibitor 50 μM) | PERCENTAGE INHIBITION Leucine-p-nitroanilide substrate ([2]; inhibitor 10 μM, ConA H110D) | PERCENTAGE INHIBITION Leucine-p-nitroanilide substrate ([2]; inhibitor 50 μM, ConA H110D) | PERCENTAGE INHIBITION α-glutamic acid-p-nitroanilide substrate ([1]; inhibitor 100 μM) | Reduction of activity against leucine-p-nitroanilide ([2]; ConA H110D, concentration recommended by the supplier) | PERCENTAGE INHIBITION Leucine-p-nitroanilide substrate ([2]; inhibitor 100 μM, ConA H110D) |
| --- | --- | --- | --- | --- | --- | --- | --- | --- | --- | --- | --- | --- |
| c1cnc2c(c1)ccc1cccnc12 [1, 10 phenanthroline, 1,10 phenanthroline] | 78% | 85% | most effective inhibitor | 78% | 87% | – | – | – | – | – | – | – |
| O=C(O)CN(CCN(CC(=O)O)CC(=O)O)CC(=O)O [EDTA, ethylenediaminetetraacetic acid] | 17% | 21% | – | 8% | 16% | – | – | – | – | – | – | – |
| CC(C)C[C@@H](N)[C@H](O)C(=O)N[C@H](C(=O)N[C@H](C(=O)N[C@@H](CC(=O)O)C(=O)O)C(C)C)C(C)C [Amastatin] | – | – | – | – | – | 0% | 0% | 61% | 66% | – | – | – |
| CC(C)C[C@H](NP(=O)(O)O[C@@H]1O[C@@H](C)[C@H](O)[C@@H](O)[C@H]1O)C(=O)N[C@@H](Cc1c[nH]c2ccccc12)C(=O)O [Phosphoramidon, phosphoramidon] | – | – | – | – | – | 1% | 1% | 0.8% | 7% | – | – | – |
| CC(C)C[C@H](NC(=O)[C@@H](O)[C@H](N)Cc1ccccc1)C(=O)O [Bestatin] | – | – | – | – | – | – | 23% | – | 63% | 35% | approximately 70% | 68% |
